Results from patent US12391679B2, “Benzamide-substituted bicyclic imidazo- and pyrazolo-fused -pyridine, -pyrimide, and -pyridazine compounds for treatment of inflammatory diseases” (ONCO3R Therapeutics BV, priority 2019, dated 2025).

Key:
Type in all cases: biochemical
SIK3 [1] = molecular target: T1, SIK3 (Homo sapiens, UniProt Q9Y2K2); assay: ADP-Glo kinase assay, SIK3
T1 construct: purchased SignalChem S12-11G-100
Outline: (§1)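 Luminescent ADP-formation read-out: enzyme–substrate mix + ATP, 120 min RT; ATP depletion 40 min RT; ADP→ATP conversion with luciferase/luciferin 30 min RT. Controls: 1% DMSO (negative), 10 μM staurosporine final (positive).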

SIK2 [2] = molecular target: T2, SIK2 (Homo sapiens, UniProt Q9H0K1); assay: ADP-Glo kinase assay, SIK2
T2 construct: purchased ThermoFisher Scientific PV4792
Outline: as §1

SIK1 [3] = molecular target: T3, SIK1 (Homo sapiens, UniProt P57059); assay: 33P radioactive kinase assay, SIK1
T3 construct: purchased Carna Biosciences 02-131
Procedure: (§2) The principle of the ^33P radioactive kinase assay consists in measuring the incorporated ^33P into the substrate AMARA peptide when phosphorylated by SIK1, SIK2 or SIK3 using [^33P]-g-ATP, which correlates with kinase activity.
(§3) The test compounds are prepared as a serial dilution of 10 point dose responses with 1/5 dilution steps in 100% DMSO starting from 2 mM highest concentration, diluted 1/20 in water and 5 μL is transferred to the assay plates (Greiner, Cat #651201).
(§4) 1% DMSO and 10 μM staurosporine final concentrations are used as negative and positive controls.
(§5) 11 μL of enzyme-substrate mixture is added on the assay plates. The reactions are started by adding 9 μL ATP mixture, consisting of non-labeled and ^33P-labeled ATP, on the assay plates.
(§6) The reactions are stopped by adding 25 μL phosphoric acid (150 mM) to the reactions.
(§7) The completely terminated kinase reactions are transferred using a harvester on pre-wetted UniFilter-96 plates (UniFilter-96 GF/B, PerkinElmer Inc., Cat #6005177).
(§8) After harvesting the kinase reactions, the filter plates are washed 6 times with phosphoric acid (75 mM). The back of the UniFilter-96 plates are sealed and 40 μL MicroScint-20 (PerkinElmer Inc., Cat #6013621) is added to each well. The top of the plates are sealed with TopSeal-A. Read-out is performed with a TopCount instrument (PerkinElmer Inc.).
(§9) Raw data are generated following the read-out performed on the TopCount, plotted to generate dose response curves to calculate percentage inhibition (PIN) and average IC50 for each SIK homologue which are reported in the table below.

SIK2 [4] = molecular target: T2, SIK2; assay: 33P radioactive kinase assay, SIK2; further: AMARA 5 µM, 10 µM ATP
Procedure: as §2, §3, §4, §5, §6, §7, §8, §9

SIK3 [5] = molecular target: T1, SIK3; assay: 33P radioactive kinase assay, SIK3; settings: 33P radioactive assay; AMARA 7 μM; 15 μM ATP; 80 min; average IC50
Procedure: as §2, §3, §4, §5, §6, §7, §8, §9

SIK1 [6] = molecular target: T3, SIK1; assay: ADP-Glo kinase assay, SIK1
Outline: as §1

T1 sequence (Q9Y2K2 59-365 limits assumed): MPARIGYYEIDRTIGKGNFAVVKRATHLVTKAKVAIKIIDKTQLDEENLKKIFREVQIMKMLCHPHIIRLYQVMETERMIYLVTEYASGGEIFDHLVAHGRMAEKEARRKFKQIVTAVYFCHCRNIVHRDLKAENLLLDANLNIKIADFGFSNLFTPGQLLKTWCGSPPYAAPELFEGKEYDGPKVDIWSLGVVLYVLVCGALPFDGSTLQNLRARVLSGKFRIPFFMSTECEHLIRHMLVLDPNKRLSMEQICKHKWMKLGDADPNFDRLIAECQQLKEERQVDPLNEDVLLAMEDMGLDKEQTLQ
T2 sequence (Q9H0K1 whole entry): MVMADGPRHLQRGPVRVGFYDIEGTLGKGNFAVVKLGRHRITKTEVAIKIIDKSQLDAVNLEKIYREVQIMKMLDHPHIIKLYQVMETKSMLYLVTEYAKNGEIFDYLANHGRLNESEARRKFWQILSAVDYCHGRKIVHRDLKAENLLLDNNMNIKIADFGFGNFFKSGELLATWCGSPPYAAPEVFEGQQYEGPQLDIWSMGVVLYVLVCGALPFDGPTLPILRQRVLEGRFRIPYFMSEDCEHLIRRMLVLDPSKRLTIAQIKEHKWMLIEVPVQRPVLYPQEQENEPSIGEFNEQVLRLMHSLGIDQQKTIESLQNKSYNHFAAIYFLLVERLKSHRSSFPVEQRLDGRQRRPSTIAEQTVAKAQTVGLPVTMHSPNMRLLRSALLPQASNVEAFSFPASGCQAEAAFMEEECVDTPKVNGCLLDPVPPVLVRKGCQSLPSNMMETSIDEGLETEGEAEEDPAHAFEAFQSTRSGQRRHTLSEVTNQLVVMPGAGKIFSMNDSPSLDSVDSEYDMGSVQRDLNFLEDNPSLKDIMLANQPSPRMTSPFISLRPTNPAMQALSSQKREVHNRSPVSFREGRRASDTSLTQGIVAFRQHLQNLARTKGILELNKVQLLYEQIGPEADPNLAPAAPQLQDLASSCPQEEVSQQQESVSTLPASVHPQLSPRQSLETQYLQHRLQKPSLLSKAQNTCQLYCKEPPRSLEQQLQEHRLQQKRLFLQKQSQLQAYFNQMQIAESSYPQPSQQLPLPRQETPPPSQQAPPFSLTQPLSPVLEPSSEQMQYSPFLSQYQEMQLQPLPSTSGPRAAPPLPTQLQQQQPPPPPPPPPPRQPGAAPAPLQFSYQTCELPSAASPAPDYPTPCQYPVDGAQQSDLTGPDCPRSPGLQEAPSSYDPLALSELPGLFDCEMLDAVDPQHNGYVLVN
T3 sequence (P57059 whole entry): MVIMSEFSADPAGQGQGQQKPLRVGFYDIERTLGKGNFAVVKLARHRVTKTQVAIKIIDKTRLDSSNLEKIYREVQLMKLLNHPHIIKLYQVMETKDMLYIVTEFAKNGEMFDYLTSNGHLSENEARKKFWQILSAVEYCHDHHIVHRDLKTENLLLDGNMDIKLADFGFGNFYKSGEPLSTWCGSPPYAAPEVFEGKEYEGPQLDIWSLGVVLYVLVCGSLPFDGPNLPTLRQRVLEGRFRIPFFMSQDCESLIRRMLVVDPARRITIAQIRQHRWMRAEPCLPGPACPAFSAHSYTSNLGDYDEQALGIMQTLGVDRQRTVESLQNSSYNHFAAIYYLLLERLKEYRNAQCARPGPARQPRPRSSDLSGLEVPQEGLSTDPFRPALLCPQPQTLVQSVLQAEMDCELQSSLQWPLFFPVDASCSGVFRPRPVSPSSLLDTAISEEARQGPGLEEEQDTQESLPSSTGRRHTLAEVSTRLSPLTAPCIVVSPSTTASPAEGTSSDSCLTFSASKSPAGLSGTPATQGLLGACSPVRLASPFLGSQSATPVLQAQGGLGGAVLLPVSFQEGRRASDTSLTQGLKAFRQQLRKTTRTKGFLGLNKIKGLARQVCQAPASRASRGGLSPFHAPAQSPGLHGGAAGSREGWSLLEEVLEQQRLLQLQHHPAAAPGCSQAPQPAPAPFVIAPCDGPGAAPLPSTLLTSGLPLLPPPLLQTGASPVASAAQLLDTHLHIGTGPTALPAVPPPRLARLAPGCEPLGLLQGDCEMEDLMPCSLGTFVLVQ

| Compound | IC50 (SIK3 [1]) | IC50 (SIK2 [2]) | IC50 (SIK1 [3]) | IC50 (SIK2 [4]) | IC50 (SIK3 [5]) | IC50 (SIK1 [6]) |
| --- | --- | --- | --- | --- | --- | --- |
| COc1cc(-c2cnc3cc(C4CCCNC4)ccn23)cc(OC)c1C(=O)NCC(F)(F)F (stereo not drawn) [Cpd 23, 2,6-dimethoxy-4-[7-(3-piperidyl)imidazo[1,2-a]pyridin-3-yl]-N-(2,2,2-trifluoroethyl)benzamide] | 10 to 100 nM | 100 to 500 nM | > 500 nM | 100 to 500 nM | 10 to 100 nM | > 500 nM |
| COc1cc(-n2cnc3cc(C4CCNCC4)ccc32)cc(OC)c1C(=O)NCC(F)(F)F [Cpd 3, 2,6-dimethoxy-4-[5-(4-piperidyl)benzimidazol-1-yl]-N-(2,2,2-trifluoroethyl)benzamide] |  |  | > 500 nM | 100 to 500 nM | 100 to 500 nM |  |
| COc1cc(-n2cnc3cc(C4(C#N)CCC4)ccc32)cc(OC)c1C(=O)NC1CC1 [Cpd 14, 4-[5-(1-cyanocyclobutyl)benzimidazol-1-yl]-N-cyclopropyl-2,6-dimethoxy-benzamide] |  |  | > 500 nM | > 500 nM | > 500 nM |  |
| COc1cc(-n2cnc3cc(C4CCN(C(=O)OC(C)(C)C)CC4)ccc32)cc(OC)c1C(=O)NCC(F)(F)F [Cpd 2, tert-butyl 4-[1-[3,5-dimethoxy-4-(2,2,2-trifluoroethylcarbamoyl)phenyl]benzimidazol-5-yl]piperidine-1-carboxylate] |  |  | > 500 nM | 100 to 500 nM | 100 to 500 nM |  |
| CCNC(=O)c1c(OC)cc(-c2cnc3cc(C(C)(C)C(N)=O)ccn23)cc1OC [Cpd 31, 4-[7-(2-amino-1,1-dimethyl-2-oxo-ethyl)imidazo[1,2-a]pyridin-3-yl]-N-ethyl-2,6-dimethoxy-benzamide] |  |  | > 500 nM | > 500 nM | 100 to 500 nM |  |
| COc1cc(-n2cnc3cc(C(C)(C)C#N)ccc32)cc(OC)c1C(=O)NC1CC1 [Cpd 11, 4-[5-(1-cyano-1-methyl-ethyl)benzimidazol-1-yl]-N-cyclopropyl-2,6-dimethoxy-benzamide] | 100 to 500 nM | > 500 nM | > 500 nM | > 500 nM | > 500 nM | > 500 nM |
| COc1cc(-n2cnc3cc(C4CCOCC4)ccc32)cc(OC)c1C(=O)NCC(F)(F)F [Cpd 5, 2,6-dimethoxy-4-(5-tetrahydropyran-4-ylbenzimidazol-1-yl)-N-(2,2,2-trifluoroethyl)benzamide] |  |  | > 500 nM | > 500 nM | 100 to 500 nM |  |
| COc1cc(-n2cnc3cc(C4(C#N)CCC4)ccc32)cc(OC)c1C(=O)NCC(F)(F)F [Cpd 13, 4-[5-(1-cyanocyclobutyl)benzimidazol-1-yl]-2,6-dimethoxy-N-(2,2,2-trifluoroethyl)benzamide] |  |  | > 500 nM | > 500 nM | > 500 nM |  |
| COc1cc(-n2cnc3cc(C4CCN(C)CC4)ccc32)cc(OC)c1C(=O)NCC(F)(F)F [Cpd 1, 2,6-dimethoxy-4-[5-(1-methyl-4-piperidyl)benzimidazol-1-yl]-N-(2,2,2-trifluoroethyl)benzamide] |  |  | > 500 nM | > 500 nM | > 500 nM |  |
| COc1cc(-c2cnc3cc(C4CCCN(C(=O)OC(C)(C)C)C4)ccn23)cc(OC)c1C(=O)NCC(F)(F)F (stereo not drawn) [Cpd 21, tert-butyl 3-[3-[3,5-dimethoxy-4-(2,2,2-trifluoroethylcarbamoyl)phenyl]imidazo[1,2-a]pyridin-7-yl]piperidine-1-carboxylate] |  |  | > 500 nM | 100 to 500 nM | 10 to 100 nM |  |
| COc1cc(-n2cnc3cc(C4CCCN(CC#N)C4)ccc32)cc(OC)c1C(=O)NCC(F)(F)F (stereo not drawn) [Cpd 9, 4-[5-[1-(cyanomethyl)-3-piperidyl]benzimidazol-1-yl]-2,6-dimethoxy-N-(2,2,2-trifluoroethyl)benzamide] |  |  | > 500 nM | > 500 nM | 100 to 500 nM |  |
| COc1cc(-n2cnc3cc(C(C)(C)C#N)ccc32)cc(OC(F)F)c1C(=O)NC1CC1 [Cpd 12, 4-[5-(1-cyano-1-methyl-ethyl)benzimidazol-1-yl]-N-cyclopropyl-2-(difluoromethoxy)-6-methoxy-benzamide] |  |  | > 500 nM | > 500 nM | 100 to 500 nM |  |
